Laboratory results taken from US12319672B2, “Alpha-D-galactopyranoside derivatives” (Idorsia Pharmaceuticals Ltd, priority 2019, dated 2025).

Assays:
[1] = target: human Gal-3 (hGal-3) (Homo sapiens (Human), UniProt P17931); experiment: Competitive binding assay: binding of biotinylated hGal-3 to microplate-adsorbed asialofetuin (ASF); conditions: Activity on hGal-3; mean values of several measurements
In short: (§1)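 For hGal-1, a variant with all six cysteines replaced by serines is preferred. Either galectin, biotinylated at 300-1000 ng/mL, competes with compound for microplate-bound ASF over 3 h at 4° C; peroxidase/ABTS detection gives IC50, averaged.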

[2] = target: human Gal-1 (hGal-1); experiment: Competitive binding assay: binding of biotinylated hGal-1 to microplate-adsorbed asialofetuin (ASF); conditions: Activities on hGal-1; mean values of several measurements
human Gal-1 (hGal-1), sequence (P09382 2-135 limits assumed): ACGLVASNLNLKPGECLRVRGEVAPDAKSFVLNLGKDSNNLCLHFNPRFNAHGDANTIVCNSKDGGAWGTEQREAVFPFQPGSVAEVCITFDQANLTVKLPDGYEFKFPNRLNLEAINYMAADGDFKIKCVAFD
In short: as §1

human Gal-3 (hGal-3), sequence (P17931 whole entry): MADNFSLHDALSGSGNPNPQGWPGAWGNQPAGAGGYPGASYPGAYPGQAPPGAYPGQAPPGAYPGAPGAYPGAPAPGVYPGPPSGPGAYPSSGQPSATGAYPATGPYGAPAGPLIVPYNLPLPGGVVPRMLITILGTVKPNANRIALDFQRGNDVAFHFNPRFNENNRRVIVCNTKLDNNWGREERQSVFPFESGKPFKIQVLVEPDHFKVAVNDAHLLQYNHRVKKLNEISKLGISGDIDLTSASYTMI

SMILES | IC50 [1] | IC50 [2]
CO[C@@H]1[C@@H](n2cc(-c3cc(F)c(F)c(F)c3)nn2)[C@@H](O)[C@@H](CO)O[C@@H]1Cc1cc(C2CCN(C(=O)OC(C)(C)C)C2)on1 (some centres unmarked) [Ex 1.70] | 1980 nM | 12600 nM
CO[C@@H]1[C@@H](n2cc(-c3ccc(F)c(F)c3F)nn2)[C@@H](O)[C@@H](CO)O[C@@H]1Cc1cc(C2(C)CCCC2)on1 [Ex 1.273] | 66 nM | 720 nM
CO[C@@H]1[C@@H](n2cc(-c3ccc(C)c(F)c3F)nn2)[C@@H](O)[C@@H](CO)O[C@@H]1Cc1cc(C2(C)CCCC2)on1 [Ex 1.274] | 110 nM | 5540 nM
CC(C)(C)OC(=O)N1CCC(C2=NOC(C[C@H]3O[C@H](CO)[C@H](O)[C@H](n4cc(-c5cc(Cl)ccc5Cl)nn4)[C@H]3O)C2)CC1 (some centres unmarked) [Ex 1.105] | 1680 nM | 2340 nM
CO[C@@H]1[C@@H](n2cc(-c3ccc(Cl)c(F)c3F)nn2)[C@@H](O)[C@@H](CO)O[C@@H]1Cc1cc(C2(C)CCCC2)on1 [Ex 1.275] | 110 nM | 3300 nM
CCCS(=O)(=O)N1CCC(n2cc(C[C@H]3O[C@H](CO)[C@H](O)[C@H](n4cc(-c5cc(F)c(F)c(F)c5)nn4)[C@H]3OC)nn2)CC1 [Example 4.09, (2R,3R,4S,5R,6R)-2-(hydroxymethyl)-5-methoxy-6-((1-(1-(propylsulfonyl)piperidin-4-yl)-1H-1,2,3-triazol-4-yl)methyl)-4-(4-(3,4,5-trifluorophenyl)-1H-1,2,3-triazol-1-yl)tetrahydro-2H-pyran-3-ol] | 13 nM | 100 nM
CO[C@@H]1[C@@H](n2cc(-c3cc(F)c(F)c(F)c3)nn2)[C@@H](O)[C@@H](CO)O[C@@H]1Cc1cc(C2CCN(S(=O)(=O)N3CCOCC3)CC2)on1 [Example 3.62, (2R,3R,4S,5R,6R)-2-(hydroxymethyl)-5-methoxy-6-((5-(1-(morpholinosulfonyl)piperidin-4-yl)isoxazol-3-yl)methyl)-4-(4-(3,4,5-trifluorophenyl)-1H-1,2,3-triazol-1-yl)tetrahydro-2H-pyran-3-ol] | 45 nM | 1350 nM
Cc1ccc(-c2cn([C@H]3[C@@H](O)[C@@H](CO)O[C@H](CC4CC(C5CCN(C(=O)OC(C)(C)C)CC5)=NO4)[C@@H]3O)nn2)c(F)c1F (some centres unmarked) [Ex 1.97] | 31 nM | 3250 nM
CO[C@@H]1[C@@H](n2cc(-c3cc(F)c(F)c(F)c3)nn2)[C@@H](O)[C@@H](CO)O[C@@H]1Cc1cc(C23CCC(N)(CC2)CC3)on1 [Ex 1.131] | 140 nM | 7440 nM
CO[C@@H]1[C@@H](n2cc(-c3cc(F)c(F)c(F)c3)nn2)[C@@H](O)[C@@H](CO)O[C@@H]1CC1CN(C2CCN(C(=O)N(C)C)CC2)C(=O)O1 (mixture of isomers) [Example 5.11, 4-((RS)-5-(((2R,3R,4S,5R,6R)-5-hydroxy-6-(hydroxymethyl)-3-methoxy-4-(4-(3,4,5-trifluorophenyl)-1H-1,2,3-triazol-1-yl)tetrahydro-2H-pyran-2-yl)methyl)-2-oxooxazolidin-3-yl)-N,N-dimethylpiperidine-1-carboxamide] | 260 nM | 1500 nM
CCOC(=O)N1CCC(c2cc(C[C@H]3O[C@H](CO)[C@H](O)[C@H](n4cc(-c5ccc(C)c(F)c5F)nn4)[C@H]3OC)no2)CC1 [Ex 1.151] | 19 nM | 1020 nM
CCOC(=O)N1CCC(c2cc(C[C@H]3O[C@H](CO)[C@H](O)[C@H](n4cc(-c5cc(F)c(F)c(F)c5)nn4)[C@H]3OC)no2)CC1 [Example 3.31, ethyl 4-(3-(((2R,3R,4S,5R,6R)-5-hydroxy-6-(hydroxymethyl)-3-methoxy-4-(4-(3,4,5-trifluorophenyl)-1H-1,2,3-triazol-1-yl)tetrahydro-2H-pyran-2-yl)methyl)isoxazol-5-yl)piperidine-1-carboxylate] | 73 nM | 850 nM
CC(C)C(=O)O[C@@H]1[C@@H](n2cc(-c3cc(F)c(F)c(F)c3)nn2)[C@@H](O)[C@@H](CO)O[C@@H]1Cc1cc(C2CCN(C(=O)OC(C)(C)C)CC2)on1 [Example 2.22, tert-butyl 4-(3-(((2R,3R,4S,5R,6R)-5-hydroxy-6-(hydroxymethyl)-3-(isobutyryloxy)-4-(4-(3,4,5-trifluorophenyl)-1H-1,2,3-triazol-1-yl)tetrahydro-2H-pyran-2-yl)methyl)isoxazol-5-yl)piperidine-1-carboxylate] | 200 nM | 27300 nM
CO[C@@H]1[C@@H](n2cc(-c3ccc(C)c(F)c3F)nn2)[C@@H](O)[C@@H](CO)O[C@@H]1Cc1cc(C2(O)CCCCC2)on1 [Ex 1.238] | 45 nM | 3740 nM
CNC(=O)CO[C@@H]1[C@@H](n2cc(-c3cc(F)c(F)c(F)c3)nn2)[C@@H](O)[C@@H](CO)O[C@@H]1CC1CC(C2CCN(C(=O)OC(C)(C)C)CC2)=NO1 (mixture of isomers) [Example 2.35, tert-butyl 4-((RS)-5-(((2R,3R,4S,5R,6R)-5-hydroxy-6-(hydroxymethyl)-3-(2-(methylamino)-2-oxoethoxy)-4-(4-(3,4,5-trifluorophenyl)-1H-1,2,3-triazol-1-yl)tetrahydro-2H-pyran-2-yl)methyl)-4,5-dihydroisoxazol-3-yl)piperidine-1-carboxylate] | 140 nM | 2620 nM
CO[C@@H]1[C@@H](n2cc(-c3ccc(F)c(F)c3F)nn2)[C@@H](O)[C@@H](CO)O[C@@H]1CC1CC(C2CCN(C(=O)OC(C)(C)C)CC2)=NO1 (some centres unmarked) [Ex 1.143] | 100 nM | 190 nM

SMILES | IC50 [1] | IC50 [2]
OC[C@H]1O[C@H](Cc2cc(C3(O)COC3)on2)[C@H](O)[C@@H](n2cc(-c3cc(F)c(F)c(F)c3)nn2)[C@H]1O [Ex 1.59] | 400 nM | 6310 nM
CO[C@@H]1[C@@H](n2cc(-c3ccc(C)c(F)c3F)nn2)[C@@H](O)[C@@H](CO)O[C@@H]1Cc1cc(C(C)(O)c2ccccc2)on1 (some centres unmarked) [Ex 1.339] | 280 nM | 10000 nM
CO[C@@H]1[C@@H](n2cc(-c3cc(F)c(F)c(F)c3)nn2)[C@@H](O)[C@@H](CO)O[C@@H]1C[C@H]1CC([C@@H]2CCN(C)C(=O)C2)=NO1 [Ex 1.89] | 990 nM | 4110 nM
CN=S1(=O)CCC(n2cc(C[C@H]3O[C@H](CO)[C@H](O)[C@H](n4cc(-c5cc(F)c(F)c(F)c5)nn4)[C@H]3OC)nn2)CC1 (stereo partly drawn) [Example 4.18, 4-(4-(((2R,3R,4S,5R,6R)-5-hydroxy-6-(hydroxymethyl)-3-methoxy-4-(4-(3,4,5-trifluorophenyl)-1H-1,2,3-triazol-1-yl)tetrahydro-2H-pyran-2-yl)methyl)-1H-1,2,3-triazol-1-yl)-1-(methylimino)hexahydro-1l6-thiopyran 1-oxide] | 57 nM | 240 nM
OC[C@H]1O[C@H](CC2CC(c3ccncc3)=NO2)[C@H](O)[C@@H](n2cc(-c3cc(F)c(F)c(F)c3)nn2)[C@H]1O (some centres unmarked) [Ex 1.16] | 430 nM | 6620 nM
CO[C@@H]1[C@@H](n2cc(-c3ccc(C)c(F)c3F)nn2)[C@@H](O)[C@@H](CO)O[C@@H]1Cc1cc(C(C)(O)c2ccccc2)on1 (some centres unmarked) [Ex 1.340] | 330 nM | 10400 nM
CO[C@@H]1[C@@H](n2cc(-c3cc(F)c(F)c(F)c3)nn2)[C@@H](O)[C@@H](CO)O[C@@H]1CC1CC(C(C)(C)CO)=NO1 (some centres unmarked) [Ex 1.281] | 530 nM | 2550 nM
CO[C@@H]1[C@@H](n2cc(-c3cc(F)c(F)c(Cl)c3)nn2)[C@@H](O)[C@@H](CO)O[C@@H]1Cc1cc(C2CCCCC2)on1 [Ex 1.218] | 420 nM | 10600 nM
CCOC(=O)N1CCC(c2cc(C[C@H]3O[C@H](CO)[C@H](O)[C@H](n4cc(-c5cc(F)c(F)c(F)c5)nn4)[C@H]3O)no2)CC1 [Example 3.26, ethyl 4-(3-(((2R,3R,4R,5R,6R)-3,5-dihydroxy-6-(hydroxymethyl)-4-(4-(3,4,5-trifluorophenyl)-1H-1,2,3-triazol-1-yl)tetrahydro-2H-pyran-2-yl)methyl)isoxazol-5-yl)piperidine-1-carboxylate] | 68 nM | 930 nM
COc1ccc(C2=NO[C@H](C[C@H]3O[C@H](CO)[C@H](O)[C@H](n4cc(-c5cc(F)c(F)c(F)c5)nn4)[C@H]3O)C2)cc1 [Ex 1.03] | 310 nM | 5450 nM
Cc1c(F)cccc1-c1cn([C@H]2[C@@H](O)[C@@H](CO)O[C@H](CC3CC(C4CCN(C(=O)OC(C)(C)C)CC4)=NO3)[C@@H]2O)nn1 (some centres unmarked) [Ex 1.112] | 1000 nM | 770 nM
O=c1ccc(C2=NOC(C[C@H]3O[C@H](CO)[C@H](O)[C@H](n4cc(-c5cc(F)c(F)c(F)c5)nn4)[C@H]3O)C2)c[nH]1 (mixture of isomers) [Example 2.02] | 250 nM | 5080 nM
CC(C)(C)c1cc(C[C@H]2O[C@H](CO)[C@H](O)[C@H](n3cc(-c4cc(F)c(F)c(F)c4)nn3)[C@H]2O)on1 [Example 2.48, (2R,3R,4R,5R,6R)-2-((3-(tert-butyl)isoxazol-5-yl)methyl)-6-(hydroxymethyl)-4-(4-(3,4,5-trifluorophenyl)-1H-1,2,3-triazol-1-yl)tetrahydro-2H-pyran-3,5-diol] | 98 nM | 1040 nM
CO[C@@H]1[C@@H](n2cc(-c3ccc(Cl)c(F)c3F)nn2)[C@@H](O)[C@@H](CO)O[C@@H]1Cc1cc(C2(C)CC2)no1 [Ex 1.259] | 33 nM | 620 nM
CO[C@@H]1[C@@H](n2cc(-c3ccc(Br)c(F)c3F)nn2)[C@@H](O)[C@@H](CO)O[C@@H]1Cc1cc(C(C)(C)C)on1 [Ex 1.191] | 150 nM | 3650 nM
